# Data: ChEMBL document CHEMBL4316618, “Synthesis and pharmacological evaluation of novel arylpiperazine oxicams derivatives as potent analgesics without ulcerogenicity” (Bioorg Med Chem, 2019)
# Tests used:
# Mus musculus [1] = experiment: Analgesic activity in formalin-induced nociception Albino Swiss CD-1 mouse model assessed as time spent on licking formalin injected hind paw during neurogenic phase at 5 mg/kg, ip pretreated for 30 mins followed by formalin induction measured up to 5 mins (reference value: 60.23 +/- 5.12 s); type: functional
# Mus musculus [2] = experiment: Analgesic activity in formalin-induced nociception Albino Swiss CD-1 mouse model assessed as time spent on licking formalin injected hind paw during neurogenic phase at 10 mg/kg, ip pretreated for 30 mins followed by formalin induction measured up to 5 mins (reference value: 60.23 +/- 5.12 s); type: functional
# Mus musculus [3] = experiment: Analgesic activity in formalin-induced nociception Albino Swiss CD-1 mouse model assessed as time spent on licking formalin injected hind paw during neurogenic phase at 20 mg/kg, ip pretreated for 30 mins followed by formalin induction measured up to 5 mins (reference value: 60.23 +/- 5.12 s); type: functional
# Mus musculus [4] = experiment: Analgesic activity in ip dosed formalin-induced nociception Albino Swiss CD-1 mouse model assessed as reduction in time spent on licking formalin injected hind paw during neurogenic phase pretreated for 30 mins followed by formalin induction measured up to 5 mins; type: functional; conditions: Swiss CD-1, ip
# Mus musculus [5] = experiment: (§1) Analgesic activity in formalin-induced nociception Albino Swiss CD-1 mouse model assessed as time spent on licking formalin injected hind paw during inflammatory phase at 5 mg/kg, ip pretreated for 30 mins followed by formalin induction measured after 15 to 30 mins (reference value: 138.5 +/- 8.55 s); type: functional
# Mus musculus [6] = experiment: as §1, with “at 10” for “at 5”; type: functional
# Mus musculus [7] = experiment: as §1, with “at 20” for “at 5”; type: functional
# Mus musculus [8] = experiment: Analgesic activity in ip dosed formalin-induced nociception Albino Swiss CD-1 mouse model assessed as reduction in time spent on licking formalin injected hind paw during inflammatory phase pretreated for 30 mins followed by formalin induction measured after 15 to 30 mins; type: functional; conditions: Swiss CD-1, ip
# Mus musculus [9] = experiment: Potency index, ratio of piroxicam ED50 to test compound ED50 for analgesic activity in ip dosed formalin-induced nociception Albino Swiss CD-1 mouse model assessed as reduction in time spent on licking formalin injected hind paw during inflammatory phase; type: functional
# Mus musculus [10] = experiment: Sedative activity in ip dosed Albino Swiss CD-1 mouse assessed as effect on locomotor activity by measuring reduction in number of light beam crossings treated for 30 mins measured for next 30 mins; type: organism-based; conditions: in vivo, 0.5 h
# [11] = Neurotoxicity in Albino Swiss CD-1 mouse assessed as motor impairment at 20 mg/kg, ip measured for 1 min at 6 to 24 rpm by rotarod test; type: toxicity, organism-based; conditions: in vivo
# [12] = Acute toxicity in Albino Swiss CD-1 mouse assessed as mortality at 2000 mg/kg, ip measured after 72 hrs relative to control; type: organism-based; conditions: in vivo
# [13] = Acute toxicity in ip dosed Albino Swiss CD-1 mouse measured for 24 hrs; type: organism-based; conditions: in vivo
# [14] = Acute toxicity in Albino Swiss CD-1 mouse assessed as mortality at 250 mg/kg, ip measured after 72 hrs relative to control; type: organism-based; conditions: in vivo
# [15] = Acute toxicity in Albino Swiss CD-1 mouse assessed as mortality at 500 mg/kg, ip measured after 72 hrs relative to control; type: organism-based; conditions: in vivo
# [16] = Acute toxicity in Albino Swiss CD-1 mouse assessed as mortality at 1000 mg/kg, ip measured after 72 hrs relative to control; type: organism-based; conditions: in vivo
# Mus musculus [17] = experiment: Analgesic activity in formalin-induced nociception Albino Swiss CD-1 mouse model assessed as time spent on licking formalin injected hind paw during neurogenic phase at 30 mg/kg, ip pretreated for 30 mins followed by formalin induction measured up to 5 mins (reference value: 60.23 +/- 5.12 s); type: functional
# Mus musculus [18] = experiment: as §1, with “at 30” for “at 5”; type: functional
# [19] = Ulcerogenic activity in Wistar (Krf:(WI) WU) rat assessed as change in gastric mucosa at 25 mg/kg measured after 24 hrs by stereo microscopic analysis; type: toxicity, organism-based; conditions: in vivo
SMILES,Time (Mus musculus [1]) [s],Time (Mus musculus [2]) [s],Time (Mus musculus [3]) [s],ED50 (Mus musculus [4]) [mg/kg],Time (Mus musculus [5]) [s],Time (Mus musculus [6]) [s],Time (Mus musculus [7]) [s],ED50 (Mus musculus [8]) [mg/kg],Ratio ED50 (Mus musculus [9]),ED50 (Mus musculus [10]) [mg/kg],Activity [11],mortality at 72 h [12] [%],LD50 at 24 h [13] [mg/kg],mortality at 72 h [14] [%],mortality at 72 h [15] [%],mortality at 72 h [16] [%],Time (Mus musculus [17]) [s],Time (Mus musculus [18]) [s],Activity [19]
O=C(C1=C(O)c2ccccc2S(=O)(=O)N1CCCN1CCN(c2cccc(C(F)(F)F)c2)CC1)c1ccccc1,51.5,42.86,35.11,27,78.5,59.17,48.6,7.14,2 - 5,38.41,Non-Toxic,0,> 2000,,,,,,
O=C(C1=C(O)c2ccccc2S(=O)(=O)N1CC(=O)N1CCN(c2ccccc2)CC1)c1ccccc1,41.17,34.29,25.83,13.9,81.13,68.86,49.71,8.85,2 - 5,31.55,Non-Toxic,,500,16.7,50,83.3,,,
Cc1ccc(C(=O)C2=C(O)c3ccccc3S(=O)(=O)N2CCCN2CCN(c3ccccc3)CC2)cc1,59,51.17,47.67,,62.57,55.86,35.33,4.01,2 - 5,35.42,Non-Toxic,0,> 2000,,,,,,
COc1ccccc1N1CCN(C(=O)CN2C(C(=O)c3ccccc3)=C(O)c3ccccc3S2(=O)=O)CC1,50.71,45.63,38.29,,77.29,63.13,55.71,7.93,2 - 5,32.1,Non-Toxic,0,> 2000,,,,,,
CN1C(C(=O)Nc2ccccn2)=C(O)c2ccccc2S1(=O)=O [PIROXICAM],61.31,58.71,59.16,,116.1,108.25,67.43,18.9,,,,,360,,,,49.75,37.57,Toxic
COc1ccccc1N1CCN(CCCN2C(C(=O)c3ccccc3)=C(O)c3ccccc3S2(=O)=O)CC1,55.83,55.71,51.4,,92.17,68.17,35.86,9.03,2 - 5,33.18,Non-Toxic,0,> 2000,,,,,,
O=C(C1=C(O)c2ccccc2S(=O)(=O)N1CC(=O)N1CCN(c2ncccn2)CC1)c1ccc(Br)cc1,44.5,31.38,22.44,11.9,81.63,63.75,48.6,8.25,2 - 5,29.89,Non-Toxic,0,> 2000,,,,,,Non-Toxic
O=C(C1=C(O)c2ccccc2S(=O)(=O)N1CCCN1CCN(c2ccccc2)CC1)c1ccccc1,40,28.25,26.29,11.6,71.6,63,44.14,6.18,2 - 5,34.12,Non-Toxic,0,> 2000,,,,,,
Cc1ccc(C(=O)C2=C(O)c3ccccc3S(=O)(=O)N2CC(=O)N2CCN(c3ccccc3)CC2)cc1,44.86,39.75,31,22.8,90,46.86,28.86,7.22,2 - 5,40.34,Non-Toxic,,569,0,66.7,83.3,,,Non-Toxic
O=C(C1=C(O)c2ccccc2S(=O)(=O)N1CC(=O)N1CCN(c2ccccc2)CC1)c1ccc(F)cc1,44.8,32,24.25,12.8,75.78,55.29,30.67,6.24,2 - 5,26.15,Non-Toxic,100,957,,0,66.7,,,Non-Toxic
